# In US20250213560A1, “NITROGEN-CONTAINING HETEROCYCLIC COMPOUNDS HAVING PHENYL GROUP AND USES THEREOF” (BNH RESEARCH CO., LTD., priority 2022, published 2025):
# Key:
# [1] = tested on: APP/PS1 mice; experiment: Hippocampal fEPSP I/O curve and LTP in Alzheimer's model mice; format: in vivo, mouse; conditions: hippocampus CA1, Os pump ventricular infusion 3 μM
# Text: Field recordings were made with a concentric bipolar electrode positioned in the stratum radiatum of the CA1 region using an extracellular glass pipette (3.5 M (2) filled with aCSF. Specifically, fEPSPs were evoked by Schaffer collateral (SC)/commissural fibers with a concentric bipolar electrode placed 200 to 300 μm from the recording pipette. Stimulation was delivered through a bipolar electrode (FHC, Bowdoin, ME, USA) placed in the Schaffer collateral-CA1 (SC). Te SC circuit was visualized using differential interference contrast (DIC) microscopy at 4× magnification and identified by the ability to evoke short and constant latency field excitatory postsynaptic potentials (fEPSPs) at CA1 synapses by SC input stimulation. In all fEPSP experiments, the test stimulation were measured prior to the beginning of all the experiments (30 μA) and a test-pulse stimulation strength that evokes 50% of the maximum fEPSP was used. Baseline synaptic responses was recorded for 30 minutes, and then long-term potentiation (LTP) was induced by high-frequency stimulation (HFS; 100 Hz, 4 trains, 1 s duration, 20 s inter-train interval). […]
# Excitatory postsynaptic potential (EPSP) was recorded by the whole-cell patch clamp method using a patch clamp amplifier (molecular devices, USA). […] It was then recorded for 60 minutes (LTP). […]
# [2] = tested on: APP/PS1 mice; experiment: Barrel cortex TC potency and GABA/AMPA ratio in Alzheimer's model mice; format: in vivo, mouse
# Experimental: All electrophysiological experiments were conducted at 27 to 29° C. For electrophysiological experiments, electrodes with […] resistance were used and stimuli were applied to the ventral posteromedial nucleus (VPM) using a concentric bipolar electrode (FHC, Bowdoin, ME). The somatosensory cortex was identified by the presence of barrels under 4×magnification and differential interference contrast (DIC) optics, and by the ability to evoke short and constant latency field excitatory postsynaptic potentials (fEPSPs) by VPM stimulation. […]
# For the minimal stimulation protocol (Potency), VB thalamic stimulation intensity was adjusted to find the lowest intensity that elicited a mixture of synaptic responses and failures. Failure rate was calculated as the number of failures/total number of trials. Potency was calculated as the mean EPSC peak amplitude excluding failures (see Chittajallu & Isaac, 2010, Emergence of cortical inhibition by coordinated sensory-driven plasticity at distinct synaptic loci, DOI: 10.1038/nn.2639; see Isaac et al., 1997, Silent Synapses during Development of Thalamocortical Inputs, https://doi.org/10.1016/S08966273 (00) 80267-6; and see Stevens & Wang, 1995, Facilitation and depression at single central synapses, DOI: 10.1016/08966273 (95) 90223-6). […]
compound,measurement,setting,value
"C[C@H]1CC[C@@H](C(=O)O)CN1C(=O)Cc1ccc(-c2cncnc2)cc1 [BnH12003, (3R,6S)-6-methyl-1-(2-(4-(pyrimidin-5-yl)phenyl)acetyl) piperidine-3-carboxylic acid]",I/O curve of field EPSP (synaptic efficacy),[1],synaptic efficacy was increased
same,"LTP of EPSP, excitatory SC pathway",[1],significantly increased
same,GABA/AMPA ratio (balance of excitation/inhibition),"[2]; barrel cortex layer 4, Os pump 3 μM",maintaining the balance of excitation/inhibition
same,excitatory TC synaptic potential (TC potency),"[2]; barrel cortex layer 4, Os pump, BnH12003 3 μM, solanezumab 200 μg",increased the excitatory TC synaptic potential
